Values after ≈ are worked out from the molar mass of the structure shown. Where two headings read alike, the source gives them in different places.
How the values were obtained:
Assay type in all cases: cell-based
[1] = system: Desulfovibrio desulfuricans IFO 13699; test: MIC against Desulfovibrio desulfuricans
Text: (§1) Below are described the antibacterial activities of the compounds in the compositions according to this invention.
(§2) The testing method complied with the standard method of Japan Sociaty of Chemotherapy.

Escherichia coli NIHJ = test: MIC against Escherichia coli NIHJ
Text: as §1, §2

[2] = system: Staphylococcus aureus FDA 209P; test: MIC against Staphylococcus aureus FDA 209P
Text: as §1, §2

[3] = Desulfovibrio desulfuricans, IFO13699, 24 h
[4] = Staphylococcus aureus, FDA209P, 24 h
[5] = Escherichia coli, Table 1, azaalkenelactams, heart infusion agar, 37° C., 24 hours, read-out: MIC
[6] = Escherichia coli, Table 2, derivatives having a carboxylate radical, heart infusion agar, 37° C., 24 hours, read-out: MIC
[7] = Table 2, derivatives having a carboxylate radical, heart infusion agar, 37° C., 24 hours

Molecule | MIC [1, 3] [µg/mL] | MIC (Escherichia coli NIHJ; Escherichia coli, 24 h) [µg/mL] | MIC [2, 4] [µg/mL] | MIC (Escherichia coli NIHJ; [6]) [µg/mL] | other results
CCCCCCCCCCC(O)CN1CC[N+](CC(=O)[O-])=C(C)CC1=O (stereo not drawn) [4-(2-hydroxy)dodecyl-7-methyl-1-azonia-4-azacyclohept-7-en-5-one-1-acetate] | 6.25 (≈ 17 µM) | 200 (≈ 543 µM) | 100 (≈ 271 µM) |  | 
CCCCCCCCCc1ccc(OCCOCCN2CCCN=C(C)CC2=O)cc1 [Example 7, 1-nonylphenylpoly(2 moles)oxyethyleneoxyethyl-4-methyl-3,6,7,8-tetrahydro-1,5-diazocin-2-one] | 12.5 (≈ 29 µM) | 200 (≈ 464 µM) | 12.5 (≈ 29 µM) |  | 
CCCCCCCCCCCC(=O)OCCN1CCN=CC(C)C1=O (stereo not drawn) [Example 47, 4-lauroyloxyethyl-6-methyl-3,6-dihydro-2H-1,4-diazepin-5-one] |  |  |  |  | MIC ([1]; Desulfovibrio desulfuricans, IFO13699, Table 1, azaalkenelactams, heart infusion agar, 37° C., 24 hours, read-out: MIC): 50 µg/mL (≈ 142 µM); MIC (Escherichia coli NIHJ; [5]): 200 µg/mL (≈ 567 µM); MIC ([2]; Staphylococcus aureus, FDA209P, Table 1, azaalkenelactams, heart infusion agar, 37° C., 24 hours, read-out: MIC): 50 µg/mL (≈ 142 µM)
CCCCCCCCCCCCOCC(O)CN1CCC[N+](C(C)C(=O)[O-])=C(C)CC1=O (stereo not drawn) [1-docoxy(2-hydroxy)propyl-4-methyl-1-aza-5-azoniacyclooct-4-en-2-one-5-propionate] | 12.5 (≈ 27.5 µM) |  | 25 (≈ 55 µM) | 800 (≈ 1760 µM) | 
CCCCCCCCCc1ccc(OCC(O)CNCCNCCNCCN2CCN=C(C)CC2=O)cc1 (stereo not drawn) [Example 32, 4-nonylphenoxy(2-hydroxy)propylaminoethylaminoethylaminoethyl-7-methyl-3,6-dihydro-2H-1,4-diazepin-5-one] | 25 (≈ 47 µM) |  | 200 (≈ 376 µM) |  | MIC (Escherichia coli NIHJ; [5]): 800 µg/mL (≈ 1500 µM)
CCCCCCCCC=CCCCCCCCCN1CCC[N+](CC(=O)[O-])=C(C)CC1=O [1-(9-octadecenyl)-4-methyl-1-aza-5-azoniacyclooct-4-en-2-one-5-acetate] | 12.5 (≈ 27.9 µM) |  | 12.5 (≈ 27.9 µM) | 800 (≈ 1780 µM) | 
CCCCCCCCOCCCN1CC[N+](CC(=O)[O-])=C(C)CC1=O [4-octoxypropyl-7-methyl-1-azonia-4-azacyclohept-7-en-5-one-1-acetate] | 50 (≈ 141 µM) |  | 50 (≈ 141 µM) | 1600 (≈ 4510 µM) | 
CCCCCCCCCCC(O)CN1CCN=C(C)CC1=O (stereo not drawn) [Example 26, 4-(2-hydroxy)dodecyl-7-methyl-3,6-dihydro-2H-1,4-diazepin-5-one] | 12.5 (≈ 40.3 µM) | 50 (≈ 161 µM) | 50 (≈ 161 µM) |  | 
CCCCCCCC(=O)NCCN1CC[N+](C(C)C(=O)[O-])=CCCC1=O (stereo not drawn) [4-octamidoethyl-4-aza-1-azoniacyclooct-8-en-5-one-1-propionate] | 50 (≈ 136 µM) | 200 (≈ 544 µM) | 400 (≈ 1090 µM) |  | 
CCCCCCCCCCCCCCCCCCCCCC(=O)OCCN1CC[N+](CC(=O)[O-])=CCCC1=O [4-behenoyloxyethyl-4-aza-1-azoniacyclooct-8-en-5-one-1-acetate] | 12.5 (≈ 22.7 µM) | 200 (≈ 363 µM) | 100 (≈ 182 µM) |  | 
CCCCCCCCCCCC(=O)OCCN1CCC[N+](CC(=O)[O-])=C(C)CC1=O [1-lauroyloxyethyl-4-methyl-1-aza-5-azoniacyclooct-4-en-2-one-5-acetate] | 25 (≈ 58.9 µM) |  | 400 (≈ 942 µM) | 3200 (≈ 7540 µM) | 
CCCCCC[C@@H](O)C/C=C\CCCCCCCC(=O)NCCN1CCN=CC(C)(C)C1=O [Example 64, 4-ricinolamidoethyl-6,6-dimethyl-3-hydro-2H-1,4-diazepin-5-one] | 25 (≈ 53.9 µM) | 400 (≈ 863 µM) | 200 (≈ 431 µM) |  | 
4-methylbenzylpoly(2 moles)oxypropyleneoxypropyl-6-methyl-4-aza-1-azoniacyclooct-8-en-5-one-1-acetate |  |  |  |  | MIC [1]: 25 µg/mL; MIC (Escherichia coli NIHJ; [7]): 800 µg/mL; MIC [2]: 400 µg/mL
CCCCCCCC/C=C\CCCCCCCC(=O)NCCN1CC[N+](CC(=O)[O-])=C(C)CC1=O [4-oleamidoethyl-7-methyl-1-azonia-4-azacyclohept-7-en-5-one-1-acetate] | 12.5 (≈ 25.4 µM) |  | 25 (≈ 50.8 µM) | 3200 (≈ 6510 µM) | 
CCCCCCCC/C=C\CCCCCCCC(=O)NCCN1CCN=C(C)CC1=O [Example 10, 4-oleamidoethyl-7-methyl-3,6-dihydro-2H-1,4-diazepin-5-one] | 6.25 (≈ 14.4 µM) |  | 50 (≈ 115 µM) |  | MIC (Escherichia coli NIHJ; [5]): 1600 µg/mL (≈ 3690 µM)
CCCCCCCCC=CCCCCCCCCN1CC[N+](CC(=O)[O-])=CCCC1=O [4-(9-octadecenyl)-4-aza-1-azoniacyclooct-8-en-5-one-1-acetate] | 50 (≈ 115 µM) | 400 (≈ 920 µM) | 200 (≈ 460 µM) |  | 
CCCCCCCCCCCCCCCCCCCCCCNCCN1CC[N+](CC(=O)[O-])=C(C)CC1=O [4-docosylaminoethyl-7-methyl-1-azonia-4-azacyclohept-7-en-5-one-1-acetate] | 12.5 (≈ 23.3 µM) |  | 12.5 (≈ 23.3 µM) | 3200 (≈ 5970 µM) | 
CCCCCCCCCCCCCCC(O)CNCCN1CC[N+](CC(=O)[O-])=C(C)CC1=O (stereo not drawn) [4-(2-hydroxyhexadecyl)aminoethyl-7-methyl-1-azonia-4-azacyclohept-7-en-5-one-1-acetate] |  | 50 (≈ 107 µM) | 25 (≈ 53.5 µM) |  | MIC ([1]; Desulfovibrio desulfuricans, IFO13699, Table 2, derivatives having a carboxylate radical, heart infusion agar, 37° C., 24 hours, read-out: MIC): 3.12 µg/mL (≈ 6.67 µM)
4-octoxy(2-hydroxy)propyl-7-methyl-1-azonia-4-azacyclohept-7-en-5-one-1-acetate |  |  |  |  | MIC [1]: 25 µg/mL; MIC (Escherichia coli NIHJ; [7]): 800 µg/mL; MIC [2]: 100 µg/mL

From patent US4346087A, “Antibacterial surface active agent containing azaalkenelactam” (priority 1979, dated 1982)
